{"source": "patent US5294611A", "about": "“Angiotensin II receptor blocking 2,3,6 substituted quinazolinones” (American Cyanamid Company, priority 1993, dated 1994)", "test_system": "Angiotensin II (AII) vasopressor response", "test": "AII Challenge: antagonism of angiotensin II vasopressor response in conscious spontaneously hypertensive rats", "assay_type": "in vivo, rat (male okamoto-Aoki SHR)", "settings": "for inhibition in vivo at 10 mg/kg / inhibition in vivo at 5 mg/kg: Rattus norvegicus; for inhibition in vivo at 10 mg/kg: iv; for inhibition in vivo at 10 mg/kg / inhibition in vivo at 5 mg/kg / Average Change: SHR n=2; for inhibition in vivo at 5 mg/kg: po, read-out: Inhibition; for Change: single SHR", "excerpt": "Conscious Male okamoto-Aoki SHR, 16-20 weeks old, weighing approximately 330 g are purchased from Charles River Labs (Wilmington, Mass.). Conscious rats are restrained in a supine position with elastic tape. The area at the base of the tail is locally anesthetized by subcutaneous infiltration with 2% procaine. […] The cannula is secured, heparinized (1,000 I.U./ml), sealed and the wound is closed. The animals are placed in plastic restraining cages in an upright position. The cannula is attached to a Statham P23Db pressure transducer, and pulsatile blood pressure is recorded to 10-15 minutes with a Gould Brush recorder. […] Angiotensin II (human sequence, Sigma Chem. Co., St. Louis, Mo.) of 0.05 and 0.1 ug/kg i.v. is injected into all rats (predosing response). Then a test compound, vehicle or a known angiotensin II antagonist is administered i.v., i.p. or orally to each set of rats. […] The vasopressor response of angiotensin II is measured for the increase in systolic blood pressure in mmHg.", "key": {"[1]": {"settings": "5 mg/kg P.O., AII 0.05 mcg/kg IV, 90 min post dose"}, "[2]": {"settings": "10 mg/kg I.V., AII 0.05 mcg/kg IV, 30 min post dose"}, "[3]": {"settings": "10 mg/kg I.V., AII 0.05 mcg/kg IV, 90 min post dose"}, "[4]": {"settings": "10 mg/kg I.V., AII 0.1 mcg/kg IV, 180 min post dose"}, "[5]": {"settings": "10 mg/kg I.V., AII dose not given, 120 min post dose"}}, "note": "Like-named read-outs stand apart in the source and are kept apart here.", "data": [{"smiles": "CCCCc1nc2ccc([C@@H]3[C@H]4C(=O)CCC[C@H]4ON3C)cc2c(=O)n1Cc1ccc(-c2ccccc2-c2nnn[nH]2)cc1", "note": "(relative stereo) [Example 49]", "values": [{"measurement": "inhibition in vivo at 10 mg/kg", "setting": "0.5 h, 10 mg/kg I.V., AII 0.05 mcg/kg IV, 30 min post dose", "result": 100, "unit": "%"}, {"measurement": "inhibition in vivo at 10 mg/kg", "setting": "0.5 h, 10 mg/kg I.V., AII 0.1 mcg/kg IV, 30 min post dose", "result": 88, "unit": "%"}, {"measurement": "inhibition in vivo at 10 mg/kg", "setting": "1 h, 10 mg/kg I.V., AII 0.01 mcg/kg IV (so in the source), 60 min post dose", "result": 86, "unit": "%"}, {"measurement": "inhibition in vivo at 10 mg/kg", "setting": "1 h, 10 mg/kg I.V., AII 0.05 mcg/kg IV, 60 min post dose", "result": 97, "unit": "%"}, {"measurement": "inhibition in vivo at 10 mg/kg", "setting": "2 h, 10 mg/kg I.V., AII 0.05 mcg/kg IV, 120 min post dose", "result": 86, "unit": "%"}, {"measurement": "inhibition in vivo at 10 mg/kg", "setting": "2 h, 10 mg/kg I.V., AII dose not given, 120 min post dose", "result": 81, "unit": "%"}, {"measurement": "inhibition in vivo at 10 mg/kg", "setting": "3 h, 10 mg/kg I.V., AII 0.05 mcg/kg IV, 180 min post dose", "result": 67, "unit": "%"}, {"measurement": "inhibition in vivo at 10 mg/kg", "setting": "3 h, 10 mg/kg I.V., AII 0.1 mcg/kg IV, 180 min post dose", "result": 63, "unit": "%"}, {"measurement": "inhibition in vivo at 10 mg/kg", "setting": "[…], 10 mg/kg I.V., AII 0.05 mcg/kg IV, 90 min post dose", "result": 87, "unit": "%"}, {"measurement": "inhibition in vivo at 10 mg/kg", "setting": "[…], 10 mg/kg I.V., AII 0.1 mcg/kg IV, 90 min post dose", "result": 86, "unit": "%"}, {"measurement": "inhibition in vivo at 5 mg/kg", "setting": "0.5 h, 5 mg/kg P.O., AII 0.05 mcg/kg IV, 30 min post dose", "result": 37, "unit": "%"}, {"measurement": "inhibition in vivo at 5 mg/kg", "setting": "0.5 h, 5 mg/kg P.O., AII 0.1 mcg/kg IV, 30 min post dose", "result": 38, "unit": "%"}, {"measurement": "inhibition in vivo at 5 mg/kg", "setting": "1 h, 5 mg/kg P.O., AII 0.05 mcg/kg IV, 60 min post dose", "result": 59, "unit": "%"}, {"measurement": "inhibition in vivo at 5 mg/kg", "setting": "1 h, 5 mg/kg P.O., AII 0.1 mcg/kg IV, 60 min post dose", "result": 29, "unit": "%"}, {"measurement": "inhibition in vivo at 5 mg/kg", "setting": "2 h, 5 mg/kg P.O., AII 0.05 mcg/kg IV, 120 min post dose", "result": 41, "unit": "%"}, {"measurement": "inhibition in vivo at 5 mg/kg", "setting": "2 h, 5 mg/kg P.O., AII 0.1 mcg/kg IV, 120 min post dose", "result": 55, "unit": "%"}, {"measurement": "inhibition in vivo at 5 mg/kg", "setting": "3 h, 5 mg/kg P.O., AII 0.05 mcg/kg IV, 180 min post dose", "result": 63, "unit": "%"}, {"measurement": "inhibition in vivo at 5 mg/kg", "setting": "3 h, 5 mg/kg P.O., AII 0.1 mcg/kg IV, 180 min post dose", "result": 35, "unit": "%"}, {"measurement": "inhibition in vivo at 5 mg/kg", "setting": "4 h, 5 mg/kg P.O., AII 0.05 mcg/kg IV, 240 min post dose", "result": 34, "unit": "%"}, {"measurement": "inhibition in vivo at 5 mg/kg", "setting": "4 h, 5 mg/kg P.O., AII 0.1 mcg/kg IV, 240 min post dose", "result": 36, "unit": "%"}, {"measurement": "inhibition in vivo at 5 mg/kg", "setting": "[…], 5 mg/kg P.O., AII 0.05 mcg/kg IV, 90 min post dose", "result": 56, "unit": "%"}, {"measurement": "inhibition in vivo at 5 mg/kg", "setting": "[…], 5 mg/kg P.O., AII 0.1 mcg/kg IV, 90 min post dose", "result": 59, "unit": "%"}, {"measurement": "Average Change", "setting": "5 mg/kg P.O., AII 0.05 mcg/kg IV, 30 min post dose", "result": 21.5, "unit": "mmHg"}, {"measurement": "Average Change", "setting": "5 mg/kg P.O., AII 0.05 mcg/kg IV, 60 min post dose", "result": 14, "unit": "mmHg"}, {"measurement": "Average Change", "setting": "[1]", "result": 15, "unit": "mmHg"}, {"measurement": "Average Change", "setting": "5 mg/kg P.O., AII 0.05 mcg/kg IV, 120 min post dose", "result": 20, "unit": "mmHg"}, {"measurement": "Average Change", "setting": "5 mg/kg P.O., AII 0.05 mcg/kg IV, 180 min post dose", "result": 12.5, "unit": "mmHg"}, {"measurement": "Average Change", "setting": "5 mg/kg P.O., AII 0.05 mcg/kg IV, 240 min post dose", "result": 22.5, "unit": "mmHg"}, {"measurement": "Average Change", "setting": "5 mg/kg P.O., AII 0.1 mcg/kg IV, 30 min post dose", "result": 26.5, "unit": "mmHg"}, {"measurement": "Average Change", "setting": "5 mg/kg P.O., AII 0.1 mcg/kg IV, 60 min post dose", "result": 30, "unit": "mmHg"}, {"measurement": "Average Change", "setting": "5 mg/kg P.O., AII 0.1 mcg/kg IV, 90 min post dose", "result": 17.5, "unit": "mmHg"}, {"measurement": "Average Change", "setting": "5 mg/kg P.O., AII 0.1 mcg/kg IV, 120 min post dose", "result": 19, "unit": "mmHg"}, {"measurement": "Average Change", "setting": "5 mg/kg P.O., AII 0.1 mcg/kg IV, 180 min post dose", "result": 27.5, "unit": "mmHg"}, {"measurement": "Average Change", "setting": "5 mg/kg P.O., AII 0.1 mcg/kg IV, 240 min post dose", "result": 27, "unit": "mmHg"}, {"measurement": "Average Change", "setting": "10 mg/kg I.V., AII 0.01 mcg/kg IV (so in the source), 60 min post dose", "result": 7.5, "unit": "mmHg"}, {"measurement": "Average Change", "setting": "[2]", "result": 0, "unit": "mmHg"}, {"measurement": "Average Change", "setting": "10 mg/kg I.V., AII 0.05 mcg/kg IV, 60 min post dose", "result": 1, "unit": "mmHg"}, {"measurement": "Average Change", "setting": "[3]", "result": 5, "unit": "mmHg"}, {"measurement": "Average Change", "setting": "10 mg/kg I.V., AII 0.05 mcg/kg IV, 120 min post dose", "result": 5.5, "unit": "mmHg"}, {"measurement": "Average Change", "setting": "10 mg/kg I.V., AII 0.05 mcg/kg IV, 180 min post dose", "result": 12.5, "unit": "mmHg"}, {"measurement": "Average Change", "setting": "10 mg/kg I.V., AII 0.1 mcg/kg IV, 30 min post dose", "result": 6.5, "unit": "mmHg"}, {"measurement": "Average Change", "setting": "10 mg/kg I.V., AII 0.1 mcg/kg IV, 90 min post dose", "result": 7.5, "unit": "mmHg"}, {"measurement": "Average Change", "setting": "[4]", "result": 20, "unit": "mmHg"}, {"measurement": "Average Change", "setting": "[5]", "result": 10, "unit": "mmHg"}, {"measurement": "Change", "setting": "[1]", "result": 15, "unit": "mmHg"}, {"measurement": "Change", "setting": "[2]", "result": 0, "unit": "mmHg"}, {"measurement": "Change", "setting": "[3]", "result": 5, "unit": "mmHg"}, {"measurement": "Change", "setting": "[4]", "result": 20, "unit": "mmHg"}, {"measurement": "Change", "setting": "[5]", "result": 10, "unit": "mmHg"}]}]}
